Test results published in US20240246941A1, “SUBSTITUTED 4-(3-AMINOPROP-1-YL)AMINOQUINOLINE ANALOGS AS MODULATORS OF MELANOMA-ASSOCIATED ANTIGEN 11 UBIQUITIN LIGASE” (ST. JUDE CHILDREN'S RESEARCH HOSPITAL, INC., priority 2020, published 2024).

Each compound was assayed against MAGE-A11:PCF11 (Homo sapiens (Human), UniProt P43364) (assay: TR-FRET single point screening at 15 μM). Conditions: single point TR-FRET screening at 15 μM against MAGE-A11:PCF11.
MAGE-A11:PCF11, sequence (P43364 218-429): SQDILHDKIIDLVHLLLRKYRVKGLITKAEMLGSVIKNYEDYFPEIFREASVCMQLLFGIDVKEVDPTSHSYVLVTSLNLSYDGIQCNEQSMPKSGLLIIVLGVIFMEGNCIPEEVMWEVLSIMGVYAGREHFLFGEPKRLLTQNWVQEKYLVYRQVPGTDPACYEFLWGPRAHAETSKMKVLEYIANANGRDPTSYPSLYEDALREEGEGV
Assay type: binding
Set-up: unit not given here
Procedure, shortened: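 Single-point screen at 15 μM (0.25% DMSO) measuring disruption of GST-MAGEA11 (5 nM) binding to FAM-PCF11_4 peptide (200 nM) detected by Tb-anti-GST (5 nM). Buffer 50 mM Tris pH 7.5, 20 mM MgCl2, 0.1 mg/ml BSA, 1 mM DTT; 90 min at ~25 °C; 520/490 nm ratio converted to % inhibition versus controls.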
For `Cc1cc(NC(=O)CN[C@H]2CCN(Cc3cccc(F)c3)C2)c2ccccc2n1` [SJ000832581], the TR-FRET signal was −1.278.
In the case of `CCOC(=O)c1cnc2ccc(OCC)cc2c1NCCN(C)C` [SJ000027288], the TR-FRET signal was 10.66.
`CCCN(CCCNc1c2ccc(Cl)cc2nc2ccc(OC)cc12)Cc1cccc(C)c1` [SJ000520954] showed a TR-FRET signal of −157.8.
`Clc1ccc2c(NCCCCN(Cc3ccccc3)Cc3nccs3)ccnc2c1` [SJ000520448] gave a TR-FRET signal of −1.698.
`CCCN(CCCNc1c2ccc(Cl)cc2nc2ccc(OC)cc12)Cc1cc(OC)ccc1O` [SJ000520933] gave a TR-FRET signal of −150.8.
Work on `COc1ccc2nc3cc(Cl)ccc3c(NCCCNCc3cc(OC(F)(F)F)ccc3OC)c2c1` [SJ000521001] yielded a TR-FRET signal of −231.8.
With `COc1cccc(CN(CCCCNc2ccnc3cc(Cl)ccc23)Cc2ccccc2)c1O` [SJ000312694] the TR-FRET signal was 7.676.
For `O=S(=O)(c1ccc(Cl)cc1)N1CCN(c2ccnc3cc(Cl)ccc23)CC1` [SJ000204656], the TR-FRET signal was −34.39.
`CCN(CC)CC(=O)Nc1c2c(nc3ccccc13)CCC2` [SJ000049655] showed a TR-FRET signal of 0.6542.
With `O=[N+]([O-])c1ccccc1CN1CCC(Nc2ccnc3cc(Cl)ccc23)CC1` [SJ000523094] the TR-FRET signal was −2.026.
In the case of `Clc1ccc2c(NCCCCN(Cc3ccccc3)Cc3ccccc3)ccnc2c1` [SJ000522718], the TR-FRET signal was 17.35.
`CCc1ccc2ncc(S(=O)(=O)c3ccc(Cl)cc3)c(N3CCN(CC)CC3)c2c1` [SJ000083968] was tested, and the TR-FRET signal was −19.13.
`COc1ccc2nc3cc(Cl)ccc3c(NCCCNCCC(C)SC)c2c1` (stereo not drawn) [SJ000361098] gave a TR-FRET signal of −514.5.
Compound `O=S(=O)(c1ccc(Cl)cc1)c1cnc2ccc(F)cc2c1N1CCN(c2ccccc2)CC1` [SJ000117055] has a TR-FRET signal of 2.112.
Compound `CN1CCN(c2c(S(=O)(=O)c3ccccc3)cnc3ccc(Cl)cc23)CC1` [SJ000083950] has a TR-FRET signal of −5.374.
`CCOC(=O)c1cnc2ccc(OCC)cc2c1NCCN1CCOCC1` [SJ000027289] gave a TR-FRET signal of 5.291.
For `CCN1CCN(c2c(S(=O)(=O)c3ccc(C)c(C)c3)cnc3ccc(F)cc23)CC1` [SJ000247345], the TR-FRET signal was 1.118.
`Clc1ccc2c(NC3CCN(Cc4ccccc4)CC3)ccnc2c1` [SJ000357524] gave a TR-FRET signal of 6.554.
Work on `Cn1ccnc1CN(CCCCNc1ccnc2cc(Cl)ccc12)Cc1ccccc1` [SJ000520435] yielded a TR-FRET signal of 5.888.
With `C=CCOCC(O)CN1CCN(c2cc(C)nc3ccccc23)CC1` (stereo not drawn) [SJ000227652] the TR-FRET signal was −0.207.
`COc1ccc(CN(CCCCNc2ccnc3cc(Cl)ccc23)Cc2ccccc2)cc1F` [SJ000520438] showed a TR-FRET signal of 13.15.
With `O=[N+]([O-])c1cccc(CN(CCCCNc2ccnc3cc(Cl)ccc23)Cc2ccccc2)c1` [SJ000361201] the TR-FRET signal was 24.37.
Compound `CCCN(CCCNc1c2ccc(Cl)cc2nc2ccc(OC)cc12)Cc1nccn1C` [SJ000522973] has a TR-FRET signal of −159.9.
`FC(F)(F)c1cc(CN(CCCCNc2ccnc3cc(Cl)ccc23)Cc2ccccc2)ccc1Cl` [SJ000520466] gave a TR-FRET signal of 25.28.
`COc1ccc2nc3cc(Cl)ccc3c(NCCCNCc3ccc(OC(F)(F)F)cc3)c2c1` [SJ000520992] showed a TR-FRET signal of −201.
`CCN1CCN(c2c(S(=O)(=O)c3ccc(C)cc3)cnc3ccc(C)cc23)CC1` [SJ000083961] showed a TR-FRET signal of 0.2213.
With `COc1ccccc1N1CCN(c2c(S(=O)(=O)c3ccccc3)cnc3ccc(C)cc23)CC1` [SJ000315081] the TR-FRET signal was −19.55.
`COc1ccc2ncc(S(=O)(=O)c3ccccc3)c(N3CCN(c4ccccc4)CC3)c2c1` [SJ000083974] was tested, and the TR-FRET signal was −133.
`CCC(C)CNCCCNc1c2ccc(Cl)cc2nc2ccc(OC)cc12` (stereo not drawn) [SJ000361093] gave a TR-FRET signal of −451.5.
With `COc1ccc2nc3cc(Cl)ccc3c(NCCCNCc3cccnc3)c2c1` [SJ000520986] the TR-FRET signal was −409.
With `CCC(CC)CNCCCNc1c2ccc(Cl)cc2nc2ccc(OC)cc12` [SJ000361092] the TR-FRET signal was −427.4.
Compound `Clc1ccc2c(NC3CCN(CC4CCCCC4)CC3)ccnc2c1` [SJ000523085] has a TR-FRET signal of 15.43.
Work on `FC(F)(F)c1ccccc1CN(CCCCNc1ccnc2cc(Cl)ccc12)Cc1ccccc1` [SJ000361192] yielded a TR-FRET signal of 27.82.
`CCCN(CCCNc1c2ccc(Cl)cc2nc2ccc(OC)cc12)Cc1ccccc1[N+](=O)[O-]` [SJ000520947] was tested, and the TR-FRET signal was −228.3.
In the case of `Clc1ccc2c(NCCCCN(Cc3ccccc3)Cc3ccco3)ccnc2c1` [SJ000312681], the TR-FRET signal was 12.05.
`Clc1ccc(CN(CCCCNc2ccnc3cc(Cl)ccc23)Cc2ccccc2)c(Cl)c1` [SJ000361207] gave a TR-FRET signal of 35.43.
For `O=S(=O)(c1ccccc1)c1cnc2ccc(F)cc2c1N1CCN(c2ccc(F)cc2)CC1` [SJ000083980], the TR-FRET signal was −11.08.
Work on `Fc1cccc(CN2CCC(Nc3ccnc4cc(Cl)ccc34)CC2)c1` [SJ000523092] yielded a TR-FRET signal of 6.622.
Compound `CCOc1ccc2ncc(S(=O)(=O)c3ccc(C)cc3)c(N3CCN(c4ccc(F)cc4)CC3)c2c1` [SJ000117060] has a TR-FRET signal of −11.07.
`Cc1cc(N2CCN(CC(O)CO)CC2)c2ccccc2n1` (stereo not drawn) [SJ000227653] was tested, and the TR-FRET signal was −4.954.
Work on `COc1ccc2nc3cc(Cl)ccc3c(NCCCNCc3cc(F)ccc3F)c2c1` [SJ000361091] yielded a TR-FRET signal of −327.2.
`Clc1ccc2c(NC3CCN(CC4CC4)CC3)ccnc2c1` [SJ000357481] was tested, and the TR-FRET signal was 3.973.

Same assay, conditions: single point TR-FRET screening of quinoline compounds against MAGE-A11:PCF11; 15 μM
`CCCN(CCCNc1ccnc2cc(Cl)ccc12)Cc1cncc(Br)c1` [SJ000523004] was tested, and the TR-FRET signal was 4.828.
Compound `Oc1c(F)cc(F)cc1CN(CCCNc1ccnc2cc(Cl)ccc12)Cc1ccccc1` [SJ000357504] has a TR-FRET signal of 27.64.
For `CCOC(=O)c1cnc2c(CC)cccc2c1NCCCN1CCOCC1` [SJ000185196], the TR-FRET signal was −4.499.
Work on `CCCN(CCCNc1ccnc2cc(Cl)ccc12)Cc1ccccc1F` [SJ000522757] yielded a TR-FRET signal of 21.99.
Compound `CCCN(CCCNc1ccnc2cc(Cl)ccc12)Cc1ccccc1N` [SJ000522747] has a TR-FRET signal of 15.43.
`CCCN(CCCNc1ccnc2cc(Cl)ccc12)Cc1nccs1` [SJ000357454] was tested, and the TR-FRET signal was 11.96.
Compound `Clc1ccc(Oc2ccc3c(NCCCNCc4ccco4)ccnc3c2)cc1` [SJ000311226] has a TR-FRET signal of 37.65.
In the case of `CCCN(CCCNc1ccnc2cc(C(F)(F)F)ccc12)Cc1ccc(Cl)cc1Cl` [SJ000523078], the TR-FRET signal was 3.83.
In the case of `CCCN(CCCNc1ccnc2cc(Cl)ccc12)Cc1ccc(C)s1` [SJ000357433], the TR-FRET signal was 16.51.
Compound `CCCN(CCCNc1ccnc2cc(Cl)ccc12)Cc1ccncc1` [SJ000357449] has a TR-FRET signal of 9.295.
In the case of `CCCN(CCCNc1ccnc2cc(C(F)(F)F)ccc12)Cc1ccccc1` [SJ000361256], the TR-FRET signal was 28.82.
In the case of `Clc1ccc2c(NCCCNCC3CCOC3)ccnc2c1` (stereo not drawn) [SJ000521038], the TR-FRET signal was 0.4026.
Compound `Clc1ccc2c(NCCCNCc3ccncc3)ccnc2c1` [SJ000523049] has a TR-FRET signal of 6.077.
Work on `CCCNCCCNc1ccnc2cc(C(F)(F)F)ccc12` [SJ000361123] yielded a TR-FRET signal of 12.82.
Work on `CCCN(CCCNc1ccnc2cc(Cl)ccc12)Cc1ccc(Cl)c([N+](=O)[O-])c1` [SJ000522761] yielded a TR-FRET signal of 16.95.
In the case of `CCOC(=O)c1cnc2ccc(F)cc2c1NCCCN1CCOCC1` [SJ000279864], the TR-FRET signal was −0.3915.
Compound `Cc1ccc(CN(CCCNc2ccnc3cc(Cl)ccc23)Cc2ccccc2)s1` [SJ000312673] has a TR-FRET signal of 4.629.
For `CCCN(CCCNc1ccnc2cc(Cl)ccc12)Cc1c[nH]c(C)n1` [SJ000522990], the TR-FRET signal was 4.828.
For `CCCN(CCCNc1ccnc2cc(Cl)ccc12)Cc1ccc([N+](=O)[O-])s1` [SJ000522750], the TR-FRET signal was 9.134.
For `Clc1ccc2c(NCCCNCc3nccs3)ccnc2c1` [SJ000521023], the TR-FRET signal was 4.988.
`FC(F)(F)c1ccc2c(NCCCNCC3CCCCC3)ccnc2c1` [SJ000361110] was tested, and the TR-FRET signal was 27.12.
Compound `CCCN(CCCNc1ccnc2cc(Cl)ccc12)CCc1ccccc1` [SJ000357574] has a TR-FRET signal of 4.884.
`CCOC(=O)c1cnc2ccc(OC)cc2c1NCCCN1CCOCC1` [SJ000127046] gave a TR-FRET signal of 2.945.
With `CCCN(CCCNc1ccnc2cc(Cl)ccc12)Cc1cccc(F)c1` [SJ000522758] the TR-FRET signal was 27.42.
With `CCC(CC)CNCCCNc1ccnc2cc(C(F)(F)F)ccc12` [SJ000361111] the TR-FRET signal was 24.33.
In the case of `Clc1ccc2c(NCCCNCc3ccco3)ccnc2c1` [SJ000000502], the TR-FRET signal was 6.349.
`Cn1cccc1CNCCCNc1ccnc2cc(C(F)(F)F)ccc12` [SJ000521041] was tested, and the TR-FRET signal was −6.879.
In the case of `FC(F)(F)c1ccc2c(NCCCNCc3cc4ccccc4o3)ccnc2c1` [SJ000521057], the TR-FRET signal was 27.48.
`O=C(C[C@H]1CC[C@]2(CC1)OO[C@]1(O2)C2CC3CC(C2)CC1C3)NCCCNc1ccnc2cc(Cl)ccc12` [SJ000578380] gave a TR-FRET signal of 28.48.
For `CCCN(CCCNc1ccnc2cc(Cl)ccc12)CC(C)C` [SJ000357568], the TR-FRET signal was 11.45.
In the case of `CCCN(CCCNc1ccnc2cc(Cl)ccc12)Cc1ccc(OC)c(F)c1` [SJ000522994], the TR-FRET signal was 15.16.
With `FC(F)(F)c1ccccc1CN(CCCNc1ccnc2cc(Cl)ccc12)Cc1ccccc1` [SJ000361168] the TR-FRET signal was 2.509.
For `CCCN(CCCNc1ccnc2cc(Cl)ccc12)Cc1cc2ccccc2o1` [SJ000522991], the TR-FRET signal was 9.295.
With `COc1cccc(CN(CCCNc2ccnc3cc(Cl)ccc23)Cc2ccccc2)c1` [SJ000361188] the TR-FRET signal was −9.05.
`Cn1cc(CNCCCNc2ccnc3cc(Cl)ccc23)c2ccccc21` [SJ000521020] showed a TR-FRET signal of 18.47.
For `CCCN(CCCNc1ccnc2cc(C(F)(F)F)ccc12)Cc1ccc2[nH]ccc2c1` [SJ000575171], the TR-FRET signal was 32.89.
`CCCN(CCCNc1ccnc2cc(C(F)(F)F)ccc12)Cc1scnc1C` [SJ000575179] showed a TR-FRET signal of 5.164.
Work on `CCCN(CCCNc1ccnc2cc(C(F)(F)F)ccc12)Cc1ccccc1F` [SJ000361274] yielded a TR-FRET signal of 19.22.
Compound `CCCN(CCCNc1c2ccc(Cl)cc2nc2ccc(OC)cc12)Cc1ccc(Cl)c(C(F)(F)F)c1` [SJ000522974] has a TR-FRET signal of 16.36.
